According to PubChem BioAssay AID743039 (Broad Institute, 2013):
Activity calls are given as the source filed them.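 Rule for the calls: active = fitted curve rises past 0.47 at a concentration no higher than the top valid tested dose; inconclusive = flat curve at a moderate level, or poor fit; inactive = the rest, including signal moving the wrong way.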

These compounds were tested on compound-only thermal shift, SYPRO orange fluorescence, no protein (assay: dye fluorescence signal without protein – biophysical, SYPRO orange, qPCR instrument, dry powder samples, artefact control for FGF22 binder project, dose response (AID 743039)). Conditions: at 0.16 µM.
For `COC(=O)C[C@H]1CC[C@@H]2[C@@H](COc3ccc(NC(=O)Nc4cccc(C#N)c4)cc3C(=O)N2C)O1`, the thermal shift signal, higher = interference was 0.097% (inactive). `O=C(N/N=C/c1cccc(Oc2ccccc2)c1)c1cccc(O)c1` was tested, and the thermal shift signal, higher = interference was -0.026% (inactive). `O=C(N/N=C/c1ccc(C(F)(F)F)cc1)c1ccc(O)cc1` was tested, and the thermal shift signal, higher = interference was -0.028% (inactive). `O=C(Nc1ccc(S(=O)(=O)N2CCOCC2)cc1)c1ccc(F)cc1` was tested, and the thermal shift signal, higher = interference was -0.05% (inactive). In the case of `CCNC(=O)C[C@@H]1CC[C@H]2[C@H](COc3ccc(NC(=O)Nc4ccc(Cl)cc4)cc3C(=O)N2C)O1`, the thermal shift signal, higher = interference is reported as 0.052% (inactive). With `CC(C)c1c(C(=O)N/N=C/c2c[nH]c3ccccc23)nnn1-c1nonc1N` the thermal shift signal, higher = interference was -0.009% (inactive). For `Cc1ccc(S(=O)(=O)N2C[C@@H](O)COC[C@@H]3O[C@@H](CC(=O)NCc4ccc(Cl)c(Cl)c4)CC[C@H]32)cc1`, the thermal shift signal, higher = interference was 0.045% (inactive). In the case of `COc1ccc(-c2nc(-c3ccc(O)cc3O)cs2)cc1OC`, the thermal shift signal, higher = interference is reported as 0.011% (inactive). With `O=S1(=O)N=C(N(Cc2cccs2)c2ccc(O)cc2)c2ccccc21` the thermal shift signal, higher = interference was 0.057% (inactive). For `O=C(N/N=C/c1c[nH]c2ccccc12)c1cccs1`, the thermal shift signal, higher = interference was -0.182% (inactive). With `COC(=O)C1=C(CS(=O)(=O)c2cc(OC)ccc2OC)NC(=O)NC1c1ccc(O)c(OC)c1` (stereo not given) the thermal shift signal, higher = interference was -0.182% (inactive). `Cc1cc(NC(=O)Nc2ccc3c(ccn3C)c2)sn1` was tested, and the thermal shift signal, higher = interference was 0.052% (inactive). In the case of `Cc1ccc(OCCCC(=O)Nc2ccc(S(=O)(=O)N3CCOCC3)cc2)cc1`, the thermal shift signal, higher = interference is reported as -0.12% (inactive). `CCN1C(=O)C(CC(=O)Nc2ccc(F)cc2)N(Cc2ccc3c(c2)OCO3)C1=S` (stereo not given) was tested, and the thermal shift signal, higher = interference was -0.165% (inactive). In the case of `Cc1[nH]c2ccc(C(=O)OCC(=O)Nc3cccc(S(N)(=O)=O)c3)cc2c1C`, the thermal shift signal, higher = interference is reported as -0.322% (inactive). In the case of `COc1ccc(Nc2nc3ccc(OC)cc3s2)cc1`, the thermal shift signal, higher = interference is reported as 0.188% (inactive). For `O=C(N/N=C/c1c[nH]c2ccccc12)c1cccc(Cl)c1`, the thermal shift signal, higher = interference was 0.069% (inactive). For `O=C(Nc1cc(Cl)cc(Cl)c1)N[C@@H]1CC[C@@H](CCNS(=O)(=O)c2cccc(F)c2)O[C@@H]1CO`, the thermal shift signal, higher = interference was 0.004% (inactive). In the case of `O=C(Nc1ccc(S(=O)(=O)N2CCCC2)cc1)c1ccccc1`, the thermal shift signal, higher = interference is reported as -0.209% (inactive). For `CCOc1cccc(C(=O)Nc2ccc3[nH]ncc3c2)c1`, the thermal shift signal, higher = interference was -0.066% (inactive). For `CC(=O)c1ccc(NC(=O)Nc2cccnc2)cc1`, the thermal shift signal, higher = interference was 0.235% (inactive). For `Cc1ccc(S(=O)(=O)N2C[C@H](O)COC[C@H]3O[C@H](CC(=O)NCc4ccc(Cl)c(Cl)c4)CC[C@@H]32)cc1`, the thermal shift signal, higher = interference was 0.168% (inactive). In the case of `Nc1cccc(-c2nc3ccc(C(=O)c4ccccc4)cc3[nH]2)c1`, the thermal shift signal, higher = interference is reported as 0.145% (inactive). With `CSc1ccc(/C=N/NC(=O)c2ccc3nc[nH]c3c2)cc1` the thermal shift signal, higher = interference was 0.305% (inactive). With `Cc1ccn(-c2ccc(NC(=O)c3cccs3)cc2)n1` the thermal shift signal, higher = interference was -0.057% (inactive). For `Cc1cc(C(=O)N/N=C/c2c[nH]c3ccccc23)cs1`, the thermal shift signal, higher = interference was 0.145% (inactive). For `O=S(=O)(Nc1nnc(C(F)(F)F)s1)c1ccc(Cl)cc1`, the thermal shift signal, higher = interference was -0.081% (inactive). `Clc1ccc(Nc2ccc(NCc3ccccc3)nn2)cc1` was tested, and the thermal shift signal, higher = interference was -0.178% (inactive). For `Cc1[nH]c2ccccc2c1C(=O)NS(=O)(=O)Nc1ccc(Cl)cc1`, the thermal shift signal, higher = interference was -0.148% (inactive). In the case of `CCc1cc(-c2n[nH]c(C)c2-c2ccc3c(c2)OCCO3)c(O)cc1O`, the thermal shift signal, higher = interference is reported as -0.093% (inactive). `CCCNC(=O)COC(=O)c1ccccc1C(=O)N(C)C1CCCCC1` was tested, and the thermal shift signal, higher = interference was -0.157% (inactive). `O=C(Nc1nccs1)C1CC(=O)N(c2ccc(F)cc2)C1` (stereo not given) was tested, and the thermal shift signal, higher = interference was -0.148% (inactive). `COc1ccc(C)cc1NS(=O)(=O)c1ccc(NS(=O)(=O)c2ccc(NC(C)=O)cc2)cc1` was tested, and the thermal shift signal, higher = interference was -0.005% (inactive). In the case of `O=C(N/N=C/c1c[nH]c2ccccc12)c1cccc(O)c1`, the thermal shift signal, higher = interference is reported as 0.355% (inactive). With `COc1cc(/C=N/NC(=O)c2cc3ccccc3[nH]2)ccc1O` the thermal shift signal, higher = interference was -0.114% (inactive). `CC(=O)Nc1cccc(NC(=O)c2ccc3[nH]c(C)c(C)c3c2)c1` was tested, and the thermal shift signal, higher = interference was -0.227% (inactive). For `CC(=O)Nc1cccc(C(=O)N/N=C/c2c[nH]c3ccccc23)c1`, the thermal shift signal, higher = interference was 0.019% (inactive). In the case of `CC(=O)Nc1ccc(NC(=O)Nc2ccccc2)cc1`, the thermal shift signal, higher = interference is reported as 0.246% (inactive). With `CN(Cc1c(C(=O)N/N=C/c2ccc(O)cc2)nnn1-c1nonc1N)c1ccccc1` the thermal shift signal, higher = interference was -0.045% (inactive). With `O=C(O)Cc1ccc(NC(=O)c2ccc(Cl)c(Cl)c2)cc1` the thermal shift signal, higher = interference was 0.188% (inactive). For `CCN1C/C(=C/c2cccs2)c2nc3ccccc3c(C(=O)O)c2C1`, the thermal shift signal, higher = interference was 0.048% (inactive). With `O=C(C[C@H]1CC[C@@H]2[C@H](COC[C@H](O)CN2S(=O)(=O)c2cccc(Cl)c2)O1)Nc1ccccc1` the thermal shift signal, higher = interference was -0.063% (inactive). For `CCc1cc(-c2[nH]ncc2-c2ccc3c(c2)OCCO3)c(O)cc1O`, the thermal shift signal, higher = interference was -0.049% (inactive). In the case of `O=C(Nc1ccc(Cl)cc1)N[C@@H]1CC[C@@H](CCNS(=O)(=O)c2ccccc2F)O[C@H]1CO`, the thermal shift signal, higher = interference is reported as -0.043% (inactive). In the case of `O=C(Nc1ccc(S(=O)(=O)N2CCCC2)cc1)c1cccs1`, the thermal shift signal, higher = interference is reported as -0.157% (inactive). With `Nc1ccc(C(=O)N/N=C/c2c[nH]c3ccccc23)cc1` the thermal shift signal, higher = interference was 0.042% (inactive). With `COC(=O)C[C@H]1CC[C@@H]2[C@@H](COc3ccc(NC(=O)Nc4ccc(C#N)cc4)cc3C(=O)N2C)O1` the thermal shift signal, higher = interference was 0.237% (inactive). For `O=C(N/N=C/c1c[nH]c2ccccc12)c1ccc(O)c(O)c1`, the thermal shift signal, higher = interference was 0.065% (inactive). With `O=C(NCCc1c[nH]c2ccccc12)c1ccc(Cl)cc1` the thermal shift signal, higher = interference was 0.048% (inactive). With `O=C(Nc1cc(Cl)cc(Cl)c1)N[C@@H]1CC[C@@H](CCNS(=O)(=O)c2cccc(F)c2)O[C@H]1CO` the thermal shift signal, higher = interference was 0.061% (inactive).
